One data set has as its target T1, Human MDM2 (HDM2) 1-116 (Homo sapiens, UniProt Q00987).
T1 construct: Human MDM2 (HDM2) 1-116
The experiment in a line: Fluorescence polarization assay 2, MDM2 (Table 4). The class given is binding. The note with it: Table 4; fluorescence polarization; read-out: MDM2 IC50. As to the method: Compounds dissolved in DMSO were pin transferred (˜100-200 nL) to the 384 well plate containing the MDM2/p53 solution. After incubation for 60 minutes, the fluorescence polarization was read on a Molecular Devices SpectraMax plate reader equipped with a Fluorescein FP cartridge. In addition to probe alone (positive control) and probe/MDM2 (negative control), a titration of linear p53(18-26) was included on every plate as an additional control. IC50 values were fit using either Prism or Collaborative Drug Discovery.
(In general: Polarisation of emitted light reports the rotation of a fluorescent probe.)

Data set [1] is described as follows: Pharmacokinetic parameters of Compound 35, intravenous, mice. Format: in vivo. The note with it: mouse, 1 mg/kg, plasma. As to the method:
Mice were treated intravenously with Compound 35 (1 mg/kg) and plasma was collected at various timepoints to determine pharmacokinetic parameters. The change in mean plasma concentration over time is shown in FIG. 5, and all pharmacokinetic parameters obtained are summarized in Table 2: […]

Another data set deals with T2, Human MDM4 (HDM4) 1-114 (Homo sapiens, UniProt O15151).
T2 construct: Human MDM4 (HDM4) 1-114
T2 sequence (O15151 1-114): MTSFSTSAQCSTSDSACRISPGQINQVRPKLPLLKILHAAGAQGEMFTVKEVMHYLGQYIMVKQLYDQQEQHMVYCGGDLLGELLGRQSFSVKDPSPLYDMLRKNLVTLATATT
Briefly: Fluorescence polarization assay 2, MDM4 (Table 4). The note with it: Table 4; fluorescence polarization; read-out: MDM4 IC50. The class given is binding. The method, then:
Compounds dissolved in DMSO were pin transferred (˜100-200 nL) to the 384 well plate containing the MDM4/p53 solution. After incubation for 60 minutes, the fluorescence polarization was read on a Molecular Devices SpectraMax plate reader equipped with a Fluorescein FP cartridge. In addition to probe alone (positive control) and probe/MDM4 (negative control), a titration of linear p53(18-26) was included on every plate as an additional control. IC50 values were fit using either Prism or Collaborative Drug Discovery.

In the next data set the test system is MOLM-13 cells. The experiment in a line: Cellular fluorescence assay (resazurin, 72 hours). Format: cell-based. As to the method:
MOLM-13 cells were grown in suspension in T75 flasks in RPMI medium with 10% fetal bovine serum (FBS) at 37° C. with 5% CO2. 40 μL of MOLM-13 cells were plated into columns 1-22 of black, clear bottom, 384 well plates at a density of 1,500 cells per well in PRMI with 10% FBS. Columns 23 and 24 were filled with 40 μL of media as a positive control. 100 nL of compounds dissolved in DMSO were pin transferred into columns 3-22 of the 384 well plate. Columns 1 and 2 served as negative control wells. Plates were incubated for 72 hours at 37° C. with 5% CO2. After incubation, the cells were given 10 μL of 2 mM Resazurin in RPMI with 10% FBS and incubated for 3 hours. The fluorescence intensity was read on a Molecular Devices SpectraMax i3x plate reader (Excitation wavelength=535 nm, Emission wavelength=585 nm).
A general note: Alamar Blue is a resazurin reagent that responds to reducing activity.

Non-standard residues stand in square brackets, D forms with d. Residues, ends and D or L forms follow the SMILES beside them. ξ: configuration not given here. NEtPhe(4-F) = CCN[C@@H](Cc1ccc(F)cc1)C(=O)O; Ala(4-thiazolyl) = N[C@@H](Cc1cscn1)C(=O)O; NMePhe(4-F) = CN[C@@H](Cc1ccc(F)cc1)C(=O)O; Phe(4-Cl) = N[C@@H](Cc1ccc(Cl)cc1)C(=O)O; Phe(4-F) = N[C@@H](Cc1ccc(F)cc1)C(=O)O; NMeThr(3ξ) = CN[C@H](C(=O)O)C(C)O; NMeF = CN[C@@H](Cc1ccccc1)C(=O)O; Tle = CC(C)(C)[C@H](N)C(=O)O; NMeV = CN[C@H](C(=O)O)C(C)C; Pip = O=C(O)[C@@H]1CCCCN1; hSer = N[C@@H](CCO)C(=O)O; NMeA = CN[C@@H](C)C(=O)O; dNMeA = CN[C@H](C)C(=O)O; Abu = CC[C@H](N)C(=O)O; Nme = COCCNCC(=O)O A value given as a limit tells only on which side of the number the result lay.

Usually IC50 stands for the midpoint of a concentration-inhibition curve. The AUC(0-inf) is total exposure, with the tail of the curve extrapolated. High values mean more exposure, low ones less exposure. Broadly, the AUC(0-t) is exposure summed from dosing to a finite time, without extrapolation to infinity. Higher therefore signals high exposure. As usually defined, the Cmax is the peak of the concentration-time curve. One may read the MRT inf as the average time that molecules of a dose stay in the body. The term MRT last denotes the average time that molecules of a dose stay in the body. A word on the Tmax: it is the time from dosing to the highest level. As a reminder, the clearance is a measure of how efficiently the substance is removed, as volume per time. Read a low clearance as inefficient removal. The term half-life denotes the time in which the quantity being followed falls by half. A higher half-life goes with slow decline.

T1 sequence (Q00987 1-116): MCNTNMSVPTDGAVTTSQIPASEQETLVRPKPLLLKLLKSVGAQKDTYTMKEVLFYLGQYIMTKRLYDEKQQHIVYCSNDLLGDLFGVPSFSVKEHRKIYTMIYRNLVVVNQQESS

For the compound `COCC[C@@H]1NC(=O)[C@H]2CCCN2C(=O)[C@H](Cc2ccccc2)N(C)C(=O)[C@H](Cc2ccc(Cl)cc2)NC(=O)[C@H](C(C)(C)C)NC(=O)[C@H](Cc2ccc(F)cc2)NC(=O)CN(CCOC)C(=O)[C@@H](C)N(C)C(=O)[C@H](Cc2cscn2)NC(=O)[C@H](C)N(C)C1=O` [Compound 35, COCC[C@@H]1NC(=O)[C@H]2CCCN2C(=O)[C@H](CC2=CC=CC=C2)N(C)C(=O)[C@H](CC2=CC=C(Cl)C=C2)NC(=O)[C@@H](NC(=O)[C@H](CC2=CC=C(F)C=C2)NC(=O)CN(CCOC)C(=O)[C@@H](C)N(C)C(=O)[C@H](CC2=CSC=N2)NC(=O)[C@H](C)N(C)C1=O)C(C)(C)C] (cyclo([Ala(4-thiazolyl)][dNMeA][Nme][Phe(4-F)][Tle][Phe(4-Cl)][NMeF][dP][hSer](Me)[NMeA])), on Human MDM2 (HDM2) 1-116, the IC50 fell in the range of 50 to 100 nM. Also, in data set [1], the AUC(0-inf) was found to be 1040 ng·h/mL, the AUC(0-t) is 1040 ng·h/mL, the Cmax is 3570 ng/mL and the MRT inf was 9 min. Besides, in data set [1], the MRT last came to 7.8 min, the time to peak (Tmax) came to 4.8 min, the clearance was 16 mL/min/kg and the half-life was 62.4 min. Further, the Vd in data set [1] (read-out: Vss) was 0.14 L/kg. Further, the IC50 on Human MDM4 (HDM4) 1-114 was > 150 nM.

With `COCC[C@@H]1NC(=O)[C@H]2CCCN2C(=O)[C@H](Cc2ccccc2)N(C)C(=O)[C@H](Cc2ccc(Cl)cc2)NC(=O)[C@H]([C@@H](C)O)NC(=O)[C@H](Cc2ccc(F)cc2)NC(=O)CN(CCOC)C(=O)[C@@H](C)N(C)C(=O)[C@H](Cc2cscn2)NC(=O)[C@H](C)N(C)C1=O` [Compound 39, COCC[C@@H]1NC(=O)[C@H]2CCCN2C(=O)[C@H](CC2=CC=CC=C2)N(C)C(=O)[C@H](CC2=CC=C(Cl)C=C2)NC(=O)[C@@H](NC(=O)[C@H](CC2=CC=C(F)C=C2)NC(=O)CN(CCOC)C(=O)[C@@H](C)N(C)C(=O)[C@H](CC2=CSC=N2)NC(=O)[C@H](C)N(C)C1=O)C(C)O] (cyclo([hSer](Me)[NMeA][Ala(4-thiazolyl)][dNMeA][Nme][Phe(4-F)]T[Phe(4-Cl)][NMeF][dP])), the IC50 with MOLM-13 cells fell in the range of 100 to 150 nM.

Regarding `CC[C@@H]1NC(=O)[C@H](Cc2ccc(F)cc2)NC(=O)CN(CCOC)C(=O)[C@@H](C)N(C)C(=O)[C@H](Cc2cscn2)NC(=O)[C@H](C)N(C)C(=O)[C@H](CCOC)NC(=O)[C@H]2CCCN2C(=O)[C@H](Cc2ccccc2)N(C)C(=O)[C@H](Cc2ccc(Cl)cc2)NC1=O` [Compound 42, CC[C@@H]1NC(=O)[C@H](CC2=CC=C(F)C=C2)NC(=O)CN(CCOC)C(=O)[C@@H](C)N(C)C(=O)[C@H](CC2=CSC=N2)NC(=O)[C@H](C)N(C)C(=O)[C@H](CCOC)NC(=O)[C@H]2CCCN2C(=O)[C@H](CC2=CC=CC=C2)N(C)C(=O)[C@H](CC2=CC=C(Cl)C=C2)NC1=O] (cyclo([Abu][Phe(4-Cl)][NMeF][dP][hSer](Me)[NMeA][Ala(4-thiazolyl)][dNMeA][Nme][Phe(4-F)])), the IC50 on Human MDM2 (HDM2) 1-116 was in the range of 25 to 50 nM; on Human MDM4 (HDM4) 1-114, 100 to 150 nM.

Turning to `COCC[C@@H]1NC(=O)[C@H]2CCCN2C(=O)[C@H](Cc2ccccc2)N(C)C(=O)[C@H](Cc2ccc(Cl)cc2)NC(=O)[C@H](C(C)C)N(C)C(=O)[C@H](Cc2ccc(F)cc2)NC(=O)CN(CCOC)C(=O)[C@@H](C)N(C)C(=O)[C@H](Cc2cscn2)NC(=O)[C@H](C)N(C)C1=O` [Compound 43, COCC[C@@H]1NC(=O)[C@H]2CCCN2C(=O)[C@H](CC2=CC=CC=C2)N(C)C(=O)[C@H](CC2=CC=C(Cl)C=C2)NC(=O)[C@H](C(C)C)N(C)C(=O)[C@H](CC2=CC=C(F)C=C2)NC(=O)CN(CCOC)C(=O)[C@@H](C)N(C)C(=O)[C@H](CC2=CSC=N2)NC(=O)[C@H](C)N(C)C1=O] (cyclo([Ala(4-thiazolyl)][dNMeA][Nme][Phe(4-F)][NMeV][Phe(4-Cl)][NMeF][dP][hSer](Me)[NMeA])), the values for the IC50 on Human MDM2 (HDM2) 1-116 and at Human MDM4 (HDM4) 1-114 were 25 to 50 nM and 100 to 150 nM, respectively.

`CCN1C(=O)[C@H](Cc2ccc(Cl)cc2)NC(=O)[C@H](C(C)(C)C)NC(=O)[C@H](Cc2ccc(F)cc2)NC(=O)CN(CCOC)C(=O)[C@@H](C)N(C)C(=O)[C@H](Cc2cscn2)NC(=O)[C@H](C)N(C)C(=O)[C@H](CCOC)NC(=O)[C@H]2CCCN2C(=O)[C@@H]1Cc1ccc(F)cc1` [Compound 44, CCN1[C@@H](Cc2ccc(F)cc2)C(=O)N2CCC[C@@H]2C(=O)N[C@@H](CCOC)C(=O)N(C)[C@@H](C)C(=O)N[C@@H](Cc2cscn2)C(=O)N(C)[C@H](C)C(=O)N(CCOC)CC(=O)N[C@@H](Cc2ccc(F)cc2)C(=O)N[C@H](C(=O)N[C@@H](Cc2ccc(Cl)cc2)C1=O)C(C)(C)C] (cyclo([Ala(4-thiazolyl)][dNMeA][Nme][Phe(4-F)][Tle][Phe(4-Cl)][NEtPhe(4-F)][dP][hSer](Me)[NMeA])): the IC50 at Human MDM2 (HDM2) 1-116 was 50 to 100 nM; at Human MDM4 (HDM4) 1-114, > 150 nM.

In the case of `COCC[C@@H]1NC(=O)[C@H]2CCCN2C(=O)[C@H](Cc2ccc(F)cc2)N(C)C(=O)[C@H](Cc2ccc(Cl)cc2)NC(=O)[C@H](C(C)O)N(C)C(=O)[C@H](Cc2ccc(F)cc2)NC(=O)CN(CCOC)C(=O)[C@@H](C)N(C)C(=O)[C@H](Cc2cscn2)NC(=O)[C@H](C)N(C)C1=O` (some centres unmarked) [Compound 45, COCC[C@@H]1NC(=O)[C@H]2CCCN2C(=O)[C@H](Cc2ccc(F)cc2)N(C)C(=O)[C@H](Cc2ccc(Cl)cc2)NC(=O)[C@H]([C@@@H](C)O)N(C)C(=O)[C@H](Cc2ccc(F)cc2)NC(=O)CN(CCOC)C(=O)[C@@H](C)N(C)C(=O)[C@H](Cc2cscn2)NC(=O)[C@H](C)N(C)C1=O] (cyclo([Ala(4-thiazolyl)][dNMeA][Nme][Phe(4-F)][NMeThr(3ξ)][Phe(4-Cl)][NMePhe(4-F)][dP][hSer](Me)[NMeA])), the IC50 in the data set with MOLM-13 cells was 50 to 100 nM.

Take `COCC[C@@H]1NC(=O)[C@H]2CCCN2C(=O)[C@H](Cc2ccc(F)cc2)N(C)C(=O)[C@H](Cc2ccc(Cl)cc2)NC(=O)[C@@H]2CCCCN2C(=O)[C@H](Cc2ccc(F)cc2)NC(=O)CN(CCOC)C(=O)[C@@H](C)N(C)C(=O)[C@H](Cc2cscn2)NC(=O)[C@H](C)N(C)C1=O` [Compound 46, COCC[C@@H]1NC(=O)[C@H]2CCCN2C(=O)[C@H](Cc2ccc(F)cc2)N(C)C(=O)[C@H](Cc2ccc(Cl)cc2)NC(=O)[C@@H]2CCCCN2C(=O)[C@H](Cc2ccc(F)cc2)NC(=O)CN(CCOC)C(=O)[C@@H](C)N(C)C(=O)[C@H](Cc2cscn2)NC(=O)[C@H](C)N(C)C1=O] (cyclo([Ala(4-thiazolyl)][dNMeA][Nme][Phe(4-F)][Pip][Phe(4-Cl)][NMePhe(4-F)][dP][hSer](Me)[NMeA])): the results for the IC50 at Human MDM2 (HDM2) 1-116 and at Human MDM4 (HDM4) 1-114 were 50 to 100 nM and 100 to 150 nM, respectively.

For `COCC[C@@H]1NC(=O)[C@H]2CCCN2C(=O)[C@H](Cc2ccc(F)cc2)N(C)C(=O)[C@H](Cc2ccc(Cl)cc2)NC(=O)[C@@H]2CCCN2C(=O)[C@H](Cc2ccc(F)cc2)NC(=O)CN(CCOC)C(=O)[C@@H](C)N(C)C(=O)[C@H](Cc2cscn2)NC(=O)[C@H](C)N(C)C1=O` [Compound 47, COCC[C@@H]1NC([C@H]2CCCN2C([C@@H](N(C([C@@H](NC([C@@H]3CCCN3C([C@@H](NC(CN(C([C@H](N(C([C@@H](NC([C@@H](N(C1=O)C)C)=O)Cc4ncsc4)=O)C)C)=O)CCOC)=O)Cc5ccc(F)cc5)=O)=O)Cc6ccc(Cl)cc6)=O)C)Cc7ccc(F)cc7)=O)=O] (cyclo([Ala(4-thiazolyl)][dNMeA][Nme][Phe(4-F)]P[Phe(4-Cl)][NMePhe(4-F)][dP][hSer](Me)[NMeA])), the half-maximal inhibitory concentration (IC50) on Human MDM2 (HDM2) 1-116 lay in the range of 25 to 50 nM; at Human MDM4 (HDM4) 1-114, 100 to 150 nM.

Source of the values: US20220411471A1, “CELL-PERMEABLE CYCLIC PEPTIDES AND USES THEREOF” (Unnatural Products Inc., priority 2019, published 2022).
